For one data set, the system named is 3D7 parasites. Description: morphological effects on 3D7 parasites. The data set is classed as cell-based, Plasmodium falciparum. Particulars: 100 μM, 48 hours. How it is done: (§1) FIG. 6 illustrates the morphological changes that occur when compound ID #9081579 activates parasite apoptosis in P. falciparum strain 3D7 (Panel C), or 3D7 PfGARP KO (Panel B) incubated with 100 μM ID #9081579 (Panels A-B) or vehicle control (Panel A) for 48 hours.
(§2) To assess the morphological effects of compound ID #9081579, 3D7 or 3D7 PfGARP KO parasites were synchronized to the ring stage and incubated with 100 μM 9081579 or vehicle control for 48 hours. […] This induction of apoptosis is further supported by caspase activation and mitochondrial depolarization assays induced by compounds ID #9081579 and ID #9078424 (see FIG. 7).

For a further data set, the system named is BeWo cells. In words: BeWo crystal violet viability assay. The data set is classed as cell-based, human. How it is done: BeWo, a human choriocarcinoma cell line, were grown in the presence of increasing concentrations of ID #9081579 or vehicle alone and cell concentration was measured using a crystal violet viability assay performed 48 hours after addition of drug. Points represent the mean of three independent technical replicates. Bars represent SD.
BeWo cells are a human placental cell line that originates from a choriocarcinoma.^31 These cells have been used widely as an in vitro model to study placental uptake of a variety of nutrients including glucose, amino acids, and iron. BeWo choriocarcinoma cells were grown in the presence of increasing concentrations of compound ID #9081579 or vehicle alone. Cell concentration was measured using a crystal violet viability assay performed 48 hours after addition of drug.

Data set [1] concerns P. falciparum strain 3D7 parasites. In words: parasite killing assay, P. falciparum 3D7, pLDH readout. The data set is classed as cell-based, Plasmodium falciparum. The following applies: ring stage. How it is done: P. falciparum strain 3D7 parasites were synchronized to the ring stage and incubated with a dilution series of compound or media control for 48 hours followed by quantification of parasitemia by Plasmodium lactate dehydrogenase assay (pLDH) assay.
(§3) P. falciparum strain 3D7 (Panels A and C) or 3D7 PfGARP KO (Panel B) parasites were synchronized to the ring stage and incubated with a dilution series of compound or media control for 48 hours followed by quantification of parasitemia by pLDH assay.
(§4) A limited structure-activity relationship (SAR) study was then conducted, evaluating 48 analog compounds having the same backbone (black in FIG. 3 inset and FIG. 4), but varying R groups (red) using P. falciparum strain 3D7 and 3D7 PfGARP KO parasites. For the SAR study, 3D7 or 3D7 PfGARP KO parasites were synchronized to the ring stage and incubated with a dilution series of compounds or media control for 48 hours followed by quantification of parasitemia by Plasmodium lactate dehydrogenase assay (pLDH) assay.^30 Each dilution was evaluated in quadruplicate. In all experiments, DMSO concentration was <0.1%.
The small molecule compounds shown in FIG. 4 were tested for their abilities to kill P. falciparum strain 3D7 parasites.

The subject of another data set is strain INDO. In words: parasite killing in chloroquine and quinine resistant strain INDO. Format: cell-based. Particulars: Plasmodium falciparum.
The next data set relates to P. falciparum parasites. In words: parasite apoptosis assays (JC-1, TUNEL, ApoStat staining). The data set is classed as cell-based, Plasmodium falciparum. On the procedure: as §2
The test system of data set [2] is 3D7 PfGARP KO parasites. Description: parasite killing assay, 3D7 PfGARP KO, pLDH readout. The following applies: 48 hours. The data set is classed as cell-based, Plasmodium falciparum. On the procedure: as §3, §4
The target in the next data set is PfGARP-A (Plasmodium falciparum, UniProt Q9U0N1). Description: surface plasmon resonance (SPR) binding on BiaCore100. The text has this:
Drugs were immobilized to a CM5 sensorchip and probed with varying concentrations of full length PfGARP on a BiaCore100.
PfGARP-A was immobilized to a sensorchip and probed with varying concentrations of drug on a BiaCore100.

Data set [3] concerns P. falciparum 3D7 strain parasites. In words: NSG/P. falciparum humanized mouse model, 3D7. Particulars: 100 mg/kg IP every 8 hours for 4 days, Pf3D7. Format: in vivo, Plasmodium falciparum. How it is done:
Drugs were evaluated in the NSG/P. falciparum humanized mouse model. Mice were reconstituted with human RBC, infected with P. falciparum 3D7 strain parasites and treated with drug or vehicle control (100 mg/kg dosed IP every 8 hours for 4 days). Parasitemia was monitored by microscopy. Results representative of two independent experiments.
The NSG mouse (NOD scid gamma mouse) is a brand of immunodeficient laboratory mice, which carries the strain non-obese diabetic (NOD). The efficacy of both lead compounds ID #9081579 and ID #9078424 were evaluated in the NSG/P. falciparum humanized mouse model.^32,33,34,35
Briefly, NSG mice (NOD.Cg-Prkdc^scidII2rg^tm1Wjl/SzJ; JAX Cat #005557) were reconstituted with human RBC (huRBC) by daily IP injections with 1 mL of huRBC at 50% hematocrit. On day 12, mice were infected with of 2×10^7 Pf3D7 infected huRBCs via tail vein injection. On day 15, mice were injected IP with ID #9081579 or ID #9078424 at 100 mg/kg final dose (approximately 2 mg per mouse in 5% DMSO/95% PEG400 vehicle) or vehicle alone. Mice were treated with drug or vehicle control every 8 hours for 4 days. This dose and schedule was designed to maintain plasma drug levels above 50 μM, as informed by our single dose PK study in Example 5.

Data set [4] has as its system P. falciparum 3D7^0087/N9 strain parasites. Description: NSG/P. falciparum humanized mouse model, adapted strain. Format: in vivo, Plasmodium falciparum. Particulars: 100 mg/kg IP every 8 hours for 4 days, adapted strain 3D70087/N9. On the procedure:
ID #9081579 was evaluated in the NSG/P. falciparum humanized mouse model. Mice were reconstituted with human RBC, infected with P. falciparum 3D7^0087/N9 strain parasites and treated with drug or vehicle control (100 mg/kg dosed IP every 8 hours for 4 days). Parasitemia was monitored by microscopy.
Just prior to submission, we have repeated this experiment using ID #9081579 and an adapted parasite strain (3D70087/N9).

For data set [5], the system named is 3D7 PfGARP KO parasites. In words: morphological effects on 3D7 PfGARP KO parasites. The data set is classed as cell-based, Plasmodium falciparum. Particulars: 100 μM, 48 hours. How it is done: as §1, §2
The subject of the next data set is Human WBC (CD45+). In words: human WBC viability by 7AAD/annexin V flow cytometry. Format: cell-based. How it is done:
Cells were stained with 7AAD and annexin V and analyzed by flow cytometry to assess viability (7AAD−, annexin V−), necrosis (7AAD+, annexin V−), early apoptosis (7AAD−, annexin V+), and late apoptosis (7AAD+, annexin V+).
Human WBC (CD45+) were incubated in the presence of increasing concentrations of compound ID #9081579 or vehicle alone for 48 hours. Cells were stained with 7AAD and annexin V and analyzed by flow cytometry to assess viability (7AAD−, annexin V−), necrosis (7AAD+, annexin V−), early apoptosis (7AAD−, annexin V+), and late apoptosis (7AAD+, annexin V+).
Background: Flow cytometry measures light scatter and fluorescence of single cells or particles in a stream.

In data set [6] the test system is P. falciparum 3D7 strain parasites. Particulars: artesunate at 50 and 100 mg/kg, literature ref 36; cited from earlier work.
Another data set addresses T1, PfGARP (aa 377-560) (Plasmodium falciparum, UniProt P13816).
T1 construct: made in house
Description: 1H-15N HSQC binding signature. How it is done: Spectra were collected on a 600 MHz Bruker spectrometer at 17° C. from samples with PfGARP (aa 377-560) alone (Red), or in complex with ID #9078424 (Blue).
Two-dimension (2D) heteronuclear single quantum coherence (HSQC) spectroscopy was used to characterize the binding of ID #9078424 to PfGARP.
Using a series of recombinant PfGARP fragments, ^1H-^15N HSQC experiments were performed using PfGARP with and without ID #9078424. These experiments confirmed predictions that PfGARP was largely an intrinsically disordered protein.

The mark [7] stands for this setting: increasing concentrations, 48 hours.
The mark [8] stands for this setting: FIG. 8 legend: drugs immobilized to CM5 sensorchip.
Where [9] appears, read: PfGARP-A immobilized to sensorchip, probed with drug.

Like-named read-outs stand apart in the source and are kept apart here.

What is called IC50 is the concentration that gives 50% inhibition.

Sequence of PfGARP-A (Q9U0N1 entry or part of it): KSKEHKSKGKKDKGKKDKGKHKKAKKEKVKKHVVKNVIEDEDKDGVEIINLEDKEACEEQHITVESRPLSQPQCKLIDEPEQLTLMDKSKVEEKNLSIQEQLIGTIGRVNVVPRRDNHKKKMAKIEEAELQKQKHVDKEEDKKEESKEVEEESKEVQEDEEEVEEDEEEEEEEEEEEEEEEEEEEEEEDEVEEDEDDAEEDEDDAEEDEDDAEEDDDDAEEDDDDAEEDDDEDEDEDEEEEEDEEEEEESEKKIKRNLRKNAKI
T1 sequence (P13816 377-560): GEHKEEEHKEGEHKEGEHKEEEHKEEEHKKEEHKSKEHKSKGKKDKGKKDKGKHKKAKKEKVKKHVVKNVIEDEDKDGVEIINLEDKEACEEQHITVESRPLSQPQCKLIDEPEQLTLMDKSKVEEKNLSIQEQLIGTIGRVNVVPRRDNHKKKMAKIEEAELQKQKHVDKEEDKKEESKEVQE

`CSc1cccc(NC(=O)C(C)N(c2ccc3c(c2)OCCO3)S(C)(=O)=O)c1` (stereo not shown) [ID #9081579]: the morphological changes result is on record as “dysmorphic, shrunken features with pyknotic nuclei” with 3D7 parasites and “not observed” in the data set with 3D7 PfGARP KO parasites [5]. Besides, the “highest non-toxic concentration relative to IC50 for parasites” value is reported as 50 fold in the data set on BeWo cells (BeWo cells) and 100 fold with Human WBC (CD45+) (human WBC (CD45+)). In addition, the “concentration causing loss of viability (no loss up to highest concentration tested)” value with BeWo cells (BeWo cells, 48 hours, crystal violet) is more than 200 µM; in the data set on Human WBC (CD45+) (human WBC (CD45+), 48 hours), more than 400 µM. Also, in the data set on BeWo cells (setting [7]), the “growth of BeWo cells” value is “does not inhibit the growth of BeWo cells”. Further, the IC50 is 1.8 to 4.8 µM in data set [1] (Plasmodium falciparum, 3D7, 48 h, read-out: IC50); 1.88 µM in data set [1] (48 hours, read-out: IC50); 5 to 8 µM in the data set on strain INDO. Moreover, the “parasite apoptosis (JC-1, TUNEL, ApoStat staining)” value with P. falciparum parasites is reported as “activate parasite apoptosis”. For the same compound, the “parasite killing activity in PfGARP KO parasites” value in the data set on 3D7 PfGARP KO parasites [2] was “no activity”. For the same compound, the SPR kinetics result at PfGARP-A (setting [8]) is recorded as “fast on, slow off kinetics”; at PfGARP-A (setting [9]) it was “fast on/off kinetics”. Moreover, the parasitemia entry in data set [3] was “no detectible parasitemia after three days of drug treatment”; in data set [4] it was “rapidly eliminated parasitemia”. Moreover, the “cytotoxicity to human white blood cells” value in the data set on Human WBC (CD45+) (setting [7]) is given as “not cytotoxic”.

`C[C@H]1[C@H](OC(=O)CCC(=O)O)O[C@@H]2O[C@@]3(C)CC[C@H]4[C@H](C)CC[C@@H]1[C@@]24OO3` [artesunate]: the parasite clearance entry in [6] is recorded as “rapid clearance”.

As to `CC(C(=O)Nc1ccccc1Cl)N(c1ccc2c(c1)OCCO2)S(C)(=O)=O` (stereo not shown) [ID #9078424], the IC50 in [1] (48 hours) turned out to be 4.4 µM; in data set [1] (48 hours, read-out: IC50) it was 4.39 µM. Moreover, the “parasite apoptosis (JC-1, TUNEL, ApoStat staining)” value in the data set on P. falciparum parasites is on record as “activate parasite apoptosis”. The SPR kinetics entry on PfGARP-A (setting [8]) is given as “fast on, slow off kinetics”; on PfGARP-A (setting [9]) it was “fast on/off kinetics”. In addition, the parasitemia entry in [3] is “no detectible parasitemia after three days of drug treatment”. For the same compound, at PfGARP (aa 377-560), the “binding to PfGARP fragment aa 377-560” value is recorded as “specific drug binding”.

Source of the values: US12544357B2, “Compositions and methods for the treatment of Plasmodium falciparum malaria” (priority 2021, dated 2026).
